From ChEMBL document CHEMBL5096230 (J Med Chem, 2022) come the findings set out here.

Assay type in all cases: organism-based
Common to all, as to details: in vivo, 120 h, time 5 day

Series [1] is described as follows: Toxicity in BALB/c mouse assessed as lethargy at 8 mg/kg, iv administered daily for 5 days.
The nature of series [2]: Toxicity in BALB/c mouse assessed as animal death at 8 mg/kg, iv administered daily for 5 days and measured after 2 dose.
Series [3] in a line: Toxicity in BALB/c mouse at 50 mg/kg, iv administered daily for 5 days.

As for `CC(=O)O[C@H]1C(=O)[C@@]2(C)[C@H]([C@H](OC(=O)c3ccccc3)[C@]3(O)C[C@H](OC(=O)[C@H](O)[C@@H](NC(=O)c4ccccc4)c4ccccc4)C(C)=C1C3(C)C)[C@]1(OC(C)=O)CO[C@@H]1C[C@@H]2O` [PACLITAXEL], the Activity result in series [1] and in series [2] was “Toxic” each time.
For the compound `CC(C)C[C@H](NC(=O)[C@H](Cc1ccc(N)cc1)NC(=O)CN1CCNCC1)C(=O)N[C@@H](C)C(=O)N[C@@H](Cc1ccc(-c2ccccc2C(F)(F)F)cc1)C(=O)N1CCC[C@H]1C(=O)N[C@@H](CC(=O)O)C(=O)N[C@@H](C)C(=O)N[C@H](C(=O)N1CCC[C@H]1C(=O)N[C@@H](Cc1ccccc1)C(=O)N[C@@H](CCCNC(=N)N)C(=O)N1CCC[C@H]1C(=O)NCC(=O)NCCCC[C@H](NC(=O)CNC(=O)[C@@H]1CCCN1C(=O)[C@H](CCCNC(=N)N)NC(=O)[C@H](Cc1ccccc1)NC(=O)[C@@H]1CCCN1C(=O)[C@@H](NC(=O)[C@H](C)NC(=O)[C@H](CC(=O)O)NC(=O)[C@@H]1CCCN1C(=O)[C@H](Cc1ccc(-c2ccccc2C(F)(F)F)cc1)NC(=O)[C@H](C)NC(=O)[C@H](CC(C)C)NC(=O)[C@H](Cc1ccc(N)cc1)NC(=O)CN1CCNCC1)C1CCCCC1)C(=O)NCC(=O)N[C@@H](CCCCNC(=O)CCCc1cn(CCCCCC(=O)O)nn1)C(N)=O)C1CCCCC1`, in series [3], the Activity entry is “Non-Toxic”.
Still for that read-out and setting: the result for `CC(=O)O[C@H]1C(=O)[C@@]2(C)[C@H]([C@H](OC(=O)c3ccccc3)[C@]3(O)C[C@H](OC(=O)[C@H](OC(=O)CCCCCn4cc(CCCC(=O)NCCCC[C@H](NC(=O)CNC(=O)[C@H](CCCCNC(=O)CNC(=O)[C@@H]5CCCN5C(=O)[C@H](CCCNC(=N)N)NC(=O)[C@H](Cc5ccccc5)NC(=O)[C@@H]5CCCN5C(=O)[C@@H](NC(=O)[C@H](C)NC(=O)[C@H](CC(=O)O)NC(=O)[C@@H]5CCCN5C(=O)[C@H](Cc5ccc(-c6ccccc6C(F)(F)F)cc5)NC(=O)[C@H](C)NC(=O)[C@H](CC(C)C)NC(=O)[C@H](Cc5ccc(N)cc5)NC(=O)CN5CCNCC5)C5CCCCC5)NC(=O)CNC(=O)[C@@H]5CCCN5C(=O)[C@H](CCCNC(=N)N)NC(=O)[C@H](Cc5ccccc5)NC(=O)[C@@H]5CCCN5C(=O)[C@@H](NC(=O)[C@H](C)NC(=O)[C@H](CC(=O)O)NC(=O)[C@@H]5CCCN5C(=O)[C@H](Cc5ccc(-c6ccccc6C(F)(F)F)cc5)NC(=O)[C@H](C)NC(=O)[C@H](CC(C)C)NC(=O)[C@H](Cc5ccc(N)cc5)NC(=O)CN5CCNCC5)C5CCCCC5)C(N)=O)nn4)[C@@H](NC(=O)c4ccccc4)c4ccccc4)C(C)=C1C3(C)C)[C@]1(OC(C)=O)CO[C@@H]1C[C@@H]2O` reads “Non-Toxic”.
